Experimental data as given in article PMC4467461, “Small-molecule activation of SERCA2a SUMOylation for the treatment of heart failure” (Nature Communications, 2015).
Entries after “also recorded” stand apart in the source; their conditions may differ.

Assays:
[1] = system: NCI-60 human tumour cell lines; assay: NCI-60 human tumour cell screen (sulforhodamine B); type: cell-based; conditions: single dose 10^-5 M, 48 hours, 60 tumor cell panels incl. MDA-MB-231
Excerpt: One concern about an agent that enhances SUMOylation is off-target effects including tumour growth. Several studies reported direct involvement of SUMO E1 in the setting of cancer. In patients with hepatocellular carcinoma, UBA2 gene expression was higher and directly correlated with lower survival rate[25]. SUMO E1 was also reported to be an important factor for myc-dependent tumour growth in mice and there is a correlation between low SUMO E1 gene expression and longer metastasis-free survival rate of patients with myc-high breast cancers. Thus, we sought to determine whether N106 would have an effect on cancer cell growth. We performed the NCI-60 human tumour cell screen used by the National Cancer Institute’s Developmental Therapeutics Program (http://dtp.cancer.gov/docs/compare/compare.html). The NCI-60 set includes leukemia, lymphomas and carcinomas of ovarian, renal, breast, prostate, colon, lung and central nervous system origin.
Supplementary Figure 12. NCI 60 cell screening. N106 submitted to the NCI 60 cell screen
has been tested initially at a single high dose of 10^-5 M in 60 different tumor cell panels. 48 hours
after compound treatment, cell density and proliferation was determined by sulforhodamine B

[2] = target: T1, ubiquitin-activating enzyme (Ub E1) (Homo sapiens, UniProt P22314); assay: Ubiquitin-activating E1 enzyme activity (ATP hydrolysis and in vitro conjugation assays); type: biochemical; conditions: at concentrations up to 100 μM
T1 sequence (P22314 1-1058): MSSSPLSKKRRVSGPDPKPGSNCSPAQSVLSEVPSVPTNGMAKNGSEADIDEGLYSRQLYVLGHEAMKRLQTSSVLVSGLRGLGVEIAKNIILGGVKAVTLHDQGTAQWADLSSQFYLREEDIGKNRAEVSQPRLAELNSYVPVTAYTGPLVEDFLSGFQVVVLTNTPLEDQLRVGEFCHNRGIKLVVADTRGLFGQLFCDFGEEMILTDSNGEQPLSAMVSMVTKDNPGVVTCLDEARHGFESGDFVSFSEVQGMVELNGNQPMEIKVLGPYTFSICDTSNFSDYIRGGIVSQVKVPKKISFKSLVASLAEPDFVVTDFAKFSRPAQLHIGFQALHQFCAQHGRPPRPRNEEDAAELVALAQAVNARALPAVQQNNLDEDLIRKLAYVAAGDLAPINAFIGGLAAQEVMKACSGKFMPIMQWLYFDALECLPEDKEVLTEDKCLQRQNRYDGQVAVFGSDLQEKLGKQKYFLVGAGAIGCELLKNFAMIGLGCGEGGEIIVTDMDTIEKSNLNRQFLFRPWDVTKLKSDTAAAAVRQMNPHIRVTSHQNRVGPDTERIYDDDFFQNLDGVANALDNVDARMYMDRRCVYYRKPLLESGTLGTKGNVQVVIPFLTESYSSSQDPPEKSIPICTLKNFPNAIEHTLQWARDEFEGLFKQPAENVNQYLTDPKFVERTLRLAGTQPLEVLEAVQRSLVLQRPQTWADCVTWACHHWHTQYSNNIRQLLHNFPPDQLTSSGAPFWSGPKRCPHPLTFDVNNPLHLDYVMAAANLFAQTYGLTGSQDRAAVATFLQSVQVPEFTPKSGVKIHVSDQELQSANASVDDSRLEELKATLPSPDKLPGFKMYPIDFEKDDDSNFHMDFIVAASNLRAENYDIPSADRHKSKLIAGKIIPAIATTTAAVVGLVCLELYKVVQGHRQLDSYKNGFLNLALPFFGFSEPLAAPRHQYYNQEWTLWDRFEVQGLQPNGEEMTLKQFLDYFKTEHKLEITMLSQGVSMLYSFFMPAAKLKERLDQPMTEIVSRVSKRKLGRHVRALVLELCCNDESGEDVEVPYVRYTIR
Description: Biochemical activity of SUMO-specific E1 enzymes was examined by ATPase assay and in-vitro gel-shifting assays. ATP hydrolysis activity of E1 enzymes was measured by using pyrophosphate assay kit (Abcam Inc.). E1 (0.05 μM), 0.25 μM E2, 12.5 μM SUMO-1 and 1 mM ATP with N106 or DMSO were used for the assays. The E1-thioester formation was analysed in reaction mixtures containing 0.05 μM E1, 12.5 μM SUMO-1 and 1 mM ATP with N106 or DMSO. The E1-dependent E2-SUMO-1 thioester formation was assessed using reaction containing 0.05 μM E1, 0.25 μM E2, 12.5 μM SUMO-1 and 1 mM ATP with N106 or DMSO. Assays were incubated at 37 °C for 30 min and were mixed with non-reducing sample buffer, and analysed in non-reducing condition. Western blotting using antibodies against SAE2 and Ubc9 detected the SUMO conjugations. […]
Supplementary Figure 5. […] Ubiquitin activating E1 enzyme activity was determined by ATP hydrolysis and in vitro conjugation assays. […] Inorganic pyrophosphate resulting from ATP hydrolysis in E1-catalazed ubiquitin activity was quantified with the use of a fluorogenic pyrophosphate assay kit. […] Thioester bond formation between ubiquitin specific E1 enzyme and ubiquitin were detected by Western blot analysis. […] E1-dependent thioester bond formation between E2 and ubiquitin was detected by Western blotting with anti-ubiquitin antibody. […]

COc1ccc(-c2nnc(Nc3nc4c(OC)cccc4s3)o2)cc1 [Compound N106, N-(4-methoxybenzo[d]thiazol-2-yl)-5-(4-methoxyphenyl)-1,3,4-oxadiazol-2-amine]
tumour cell growth and proliferation [1]: has not shown any significant oncogenic activity; also recorded: did not induce any tumour cell growth and proliferation
in-vitro activity of Ub E1 (ubiquitin activation, conjugation of ubiquitin to Ub E1, Ub E1-dependent conjugation to E2 cdc32) [2]: did not significantly stimulate
